In paper PMC5045260 (Phytotherapy research : PTR, 2016):

What was measured:
[1] = molecular target: T1, c-Met (Homo sapiens, UniProt P08581); assay: Z'-LYTE Tyr6 peptide kinase assay, single concentration; assay type: biochemical
[2] = molecular target: T1, c-Met; assay: Z'-LYTE Tyr6 peptide kinase assay, […] ATP, purified c-Met kinase domain; assay type: biochemical

T1 sequence (P08581 956-1390 limits assumed): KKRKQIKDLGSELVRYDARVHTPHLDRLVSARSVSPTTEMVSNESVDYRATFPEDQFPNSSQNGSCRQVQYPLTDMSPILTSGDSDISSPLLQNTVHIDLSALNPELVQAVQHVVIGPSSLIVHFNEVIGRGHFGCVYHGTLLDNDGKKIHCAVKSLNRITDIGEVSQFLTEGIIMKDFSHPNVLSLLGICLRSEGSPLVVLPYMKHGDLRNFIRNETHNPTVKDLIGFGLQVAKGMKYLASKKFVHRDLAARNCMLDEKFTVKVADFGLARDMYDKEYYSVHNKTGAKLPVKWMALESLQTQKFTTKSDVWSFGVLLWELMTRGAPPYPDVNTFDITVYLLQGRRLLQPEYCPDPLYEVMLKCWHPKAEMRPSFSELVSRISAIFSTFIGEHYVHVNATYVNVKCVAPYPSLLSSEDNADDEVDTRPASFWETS

Q: For C/C=C(/C=O)[C@@H](CC=O)CC(=O)OCCc1ccc(O)cc1 [oleocanthal], which “Z'-LYTE Tyr6 peptide kinase assay, single concentration (53% reduction at 5 μM),” value [1] is on record?
A: The value was 53% reduction at 5.

Q: For Cc1cc(O)c(C=O)c2c1C(=O)Oc1c(C)c(O)c3c(c1O2)C(O)OC3=O (centres unmarked) [norstictic acid], which IC50 [2] is on record?
A: The IC50 was 6.5 µM.
